From PubChem BioAssay AID256 (DTP/NCI, 2004)
“And” between values parts separate entries of the source, which are not always exact repeats. Identical values can stand only once. Toxic doses and inconclusive results are not listed. Rule for the calls: active = survival T/C of 150% or more; inactive = T/C below 125% in these data.

Test system: CD2F1 mice, L1210 leukemia ip, survival T/C
Assay: NCI In Vivo Anticancer Drug Screen. Data for tumor model L1210 Leukemia (intraperitoneal) in CD2F1 (CDF1) mice
Settings: higher = longer survival
Outline: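 Read-out first: treated-group measurement over vehicle-control measurement, expressed as a ratio. Animals bore a transplanted tumor line and were dosed with compound or vehicle.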

[1] = endpoint: mean survival time, dose: 25.0 mg/kg/injection, schedule: Q04DX002 (ip), vehicle: saline with Tween-80
[2] = endpoint: mean survival time, dose: 100.0 mg/kg/injection, schedule: Q04DX003 (ip), vehicle: saline
[3] = endpoint: mean survival time, dose: 12.5 mg/kg/injection, schedule: Q01DX009 (ip), vehicle: saline with Tween-80
[4] = endpoint: mean survival time, dose: 25.0 mg/kg/injection, schedule: Q01DX009 (ip), vehicle: saline with Tween-80
[5] = endpoint: mean survival time, dose: 50.0 mg/kg/injection, schedule: Q01DX009 (ip), vehicle: saline with Tween-80
[6] = endpoint: mean survival time, dose: 200.0 mg/kg/injection, schedule: Q01DX009 (ip), vehicle: saline with Tween-80
[7] = endpoint: mean survival time, dose: 400.0 mg/kg/injection, schedule: Q01DX009 (ip), vehicle: saline with Tween-80
[8] = endpoint: mean survival time, dose: 100.0 mg/kg/injection, schedule: Q01DX009 (ip), vehicle: saline with Tween-80
[9] = endpoint: mean survival time, dose: 100.0 mg/kg/injection, schedule: Q01DX009 (ip), vehicle: saline
[10] = endpoint: mean survival time, dose: 200.0 mg/kg/injection, schedule: Q01DX009 (ip), vehicle: saline
[11] = endpoint: mean survival time, dose: 100.0 mg/kg/injection, schedule: Q01DX001 (ip), vehicle: saline with Tween-80
[12] = endpoint: mean survival time, dose: 200.0 mg/kg/injection, schedule: Q01DX001 (ip), vehicle: saline with Tween-80
[13] = endpoint: mean survival time, dose: 400.0 mg/kg/injection, schedule: Q01DX001 (ip), vehicle: saline with Tween-80

Measured: T/C

Cc1cccc2cc3c(sc4ccccc43)c(C)c12
inactive: endpoint: mean survival time, dose: 7.9 mg/kg/injection, schedule: Q04DX003 (ip), vehicle: other 101 % of control | endpoint: mean survival time, dose: 15.7 mg/kg/injection, schedule: Q04DX003 (ip), vehicle: other 97 % of control | endpoint: mean survival time, dose: 31.3 mg/kg/injection, schedule: Q04DX003 (ip), vehicle: other 97 % of control | endpoint: mean survival time, dose: 62.5 mg/kg/injection, schedule: Q04DX003 (ip), vehicle: other 97 % of control | endpoint: mean survival time, dose: 125.0 mg/kg/injection, schedule: Q04DX003 (ip), vehicle: other 93 % of control

O=C1OC(=O)C2=C1C1C3C=CCC3C2N2C=CC=CC12 (stereo not given)
inactive: endpoint: mean survival time, dose: 100.0 mg/kg/injection, schedule: Q01DX001 (ip), vehicle: Klucel (hydroxypropylcellulose) (HPC) 105 % of control | endpoint: mean survival time, dose: 200.0 mg/kg/injection, schedule: Q01DX001 (ip), vehicle: Klucel (hydroxypropylcellulose) (HPC) 93 % of control

O=c1[nH]c(=O)n2ncc(Br)c2[nH]1
inactive: endpoint: median survival time, dose: 50.0 mg/kg/injection, schedule: Q01DX005 (ip), vehicle: saline 102 % of control | endpoint: median survival time, dose: 100.0 mg/kg/injection, schedule: Q01DX005 (ip), vehicle: saline 102 % of control

CN(C)N=Nc1ccc(S(N)(=O)=O)cc1
inactive: endpoint: mean survival time, dose: 18.75 mg/kg/injection, schedule: Q01DX009 (ip), vehicle: Klucel (hydroxypropylcellulose) (HPC) 106 % of control | endpoint: mean survival time, dose: 37.5 mg/kg/injection, schedule: Q01DX009 (ip), vehicle: Klucel (hydroxypropylcellulose) (HPC) 124 % of control | endpoint: mean survival time, dose: 150.0 mg/kg/injection, schedule: Q01DX009 (ip), vehicle: Klucel (hydroxypropylcellulose) (HPC) 118 % of control

CS(=O)(=O)c1nnc(-c2ccccc2)s1
inactive: endpoint: mean survival time, dose: 100.0 mg/kg/injection, schedule: Q04DX003 (ip), vehicle: Klucel (hydroxypropylcellulose) (HPC) 90 % of control | endpoint: mean survival time, dose: 200.0 mg/kg/injection, schedule: Q04DX003 (ip), vehicle: Klucel (hydroxypropylcellulose) (HPC) 90 % of control

COc1cc(C)cc(N)n1
inactive: endpoint: mean survival time, dose: 6.25 mg/kg/injection, schedule: Q01DX001 (ip), vehicle: saline with Tween-80 89 % of control | endpoint: mean survival time, dose: 12.5 mg/kg/injection, schedule: Q01DX001 (ip), vehicle: saline with Tween-80 92 % of control | endpoint: mean survival time, dose: 25.0 mg/kg/injection, schedule: Q01DX001 (ip), vehicle: saline with Tween-80 89 % of control

COc1ccc(NC(=O)Nc2ccccc2C)c(Cl)c1
inactive: [1] 94 % of control | endpoint: mean survival time, dose: 50.0 mg/kg/injection, schedule: Q04DX002 (ip), vehicle: saline with Tween-80 98 % of control | endpoint: mean survival time, dose: 100.0 mg/kg/injection, schedule: Q04DX002 (ip), vehicle: saline with Tween-80 86 % of control and 90 % of control | endpoint: mean survival time, dose: 400.0 mg/kg/injection, schedule: Q04DX002 (ip), vehicle: saline with Tween-80 86 % of control

CC(C)C([N+](C)(C)C)P(=O)([O-])O (stereo not given)
inactive: [2] 101 % of control | endpoint: mean survival time, dose: 200.0 mg/kg/injection, schedule: Q04DX003 (ip), vehicle: saline 96 % of control | endpoint: mean survival time, dose: 400.0 mg/kg/injection, schedule: Q04DX003 (ip), vehicle: saline 101 % of control

O=C(O)CCC(=O)c1ccc(Cl)cc1
inactive: endpoint: mean survival time, dose: 3.13 mg/kg/injection, schedule: Q04DX002 (ip), vehicle: saline with Tween-80 112 % of control | endpoint: mean survival time, dose: 6.25 mg/kg/injection, schedule: Q04DX002 (ip), vehicle: saline with Tween-80 97 % of control | endpoint: mean survival time, dose: 12.5 mg/kg/injection, schedule: Q04DX002 (ip), vehicle: saline with Tween-80 93 % of control | [1] 97 % of control | endpoint: median survival time, dose: 200.0 mg/kg/injection, schedule: Q04DX002 (ip), vehicle: saline with Tween-80 94 % of control

CCC[CH2][Sn]1([CH2]CCC)[O]C(=O)C2CC=CCC2C(=O)[O]1 (stereo not given)
inactive: endpoint: mean survival time, dose: 100.0 mg/kg/injection, schedule: Q01DX001 (ip), vehicle: saline 102 % of control | endpoint: mean survival time, dose: 200.0 mg/kg/injection, schedule: Q01DX001 (ip), vehicle: saline 104 % of control

CCOC(=O)c1cnc(NN)nc1Nc1cc(Cl)cc(Cl)c1
inactive: endpoint: mean survival time, dose: 6.25 mg/kg/injection, schedule: Q01DX009 (ip), vehicle: saline with Tween-80 94 % of control | [3] 86 % of control | endpoint: mean survival time, dose: 12.5 mg/kg/injection, schedule: Q04DX003 (ip), vehicle: saline with Tween-80 89 % of control | [4] 95 % of control | endpoint: mean survival time, dose: 25.0 mg/kg/injection, schedule: Q04DX003 (ip), vehicle: saline with Tween-80 89 % of control

Cc1cccc(C(=O)C=C(C(F)(F)F)C(F)(F)F)c1
inactive: [3] 103 % of control | [4] 113 % of control

O=[N+]([O-])O.[Ga]
inactive: endpoint: mean survival time, dose: 50.0 mg/kg/injection, schedule: Q01DX Z (ip), vehicle: saline 119 % of control

OC(C1CCCCN1)C1CC(c2ccccc2)Nc2c(Cl)cc(Cl)cc21 (stereo not given)
inactive: [2] 97 % of control

CCc1ccc(S(=O)(=O)c2ccc(C)cc2)cc1
inactive: endpoint: mean survival time, dose: 75.0 mg/kg/injection, schedule: Q04DX003 (ip), vehicle: saline 100 % of control | endpoint: mean survival time, dose: 150.0 mg/kg/injection, schedule: Q04DX003 (ip), vehicle: saline 100 % of control | endpoint: mean survival time, dose: 300.0 mg/kg/injection, schedule: Q04DX003 (ip), vehicle: saline 100 % of control

BrCC1OCCCO1
inactive: [3] 105 % of control | [4] 111 % of control | [5] 115 % of control

CCN1/C(=C\c2ccc3cc(OC)ccc3[n+]2CC)[Se]c2ccc(OC)cc21
inactive: endpoint: mean survival time, dose: 9.5 mg/kg/injection, schedule: Q01DX001 (ip), vehicle: other 86 % of control

CC(CCOP(=O)(N(C)C)N(CCCl)CCCl)OCc1ccccc1 (stereo not given)
inactive: endpoint: mean survival time, dose: 25.0 mg/kg/injection, schedule: Q01DX001 (ip), vehicle: other 101 % of control | endpoint: mean survival time, dose: 50.0 mg/kg/injection, schedule: Q01DX001 (ip), vehicle: other 102 % of control | endpoint: mean survival time, dose: 100.0 mg/kg/injection, schedule: Q01DX001 (ip), vehicle: other 98 % of control | endpoint: mean survival time, dose: 200.0 mg/kg/injection, schedule: Q01DX001 (ip), vehicle: other 87 % of control | endpoint: mean survival time, dose: 400.0 mg/kg/injection, schedule: Q01DX001 (ip), vehicle: other 95 % of control

COc1ccc(NC(=O)Nc2cc(Cl)ccc2Cl)cc1
inactive: [6] 88 % of control | [7] 100 % of control

Cc1ccc(C(=O)Nc2ccccc2I)cc1
inactive: [8] 97 % of control | [6] 101 % of control | [7] 97 % of control

O=C(O)c1ccc2cc(O)ccc2c1
inactive: [9] 100 % of control | [10] 94 % of control

CN(C)C/C(=N\Oc1ccc([N+](=O)[O-])cc1[N+](=O)[O-])c1ccc(Cl)cc1
inactive: [5] 91 % of control | [11] 98 % of control | [8] 88 % of control | [12] 102 % of control | [6] 91 % of control | [13] 95 % of control

COc1cc2c(cc1OC)-c1c3c(cc4c1[C@@H](C2)N(C)CC4)OCO3
inactive: endpoint: median survival time, dose: 12.5 mg/kg/injection, schedule: Q01DX005 (ip), vehicle: distilled water + Tween-80 96 % of control | endpoint: median survival time, dose: 25.0 mg/kg/injection, schedule: Q01DX005 (ip), vehicle: distilled water + Tween-80 104 % of control | endpoint: median survival time, dose: 50.0 mg/kg/injection, schedule: Q01DX005 (ip), vehicle: distilled water + Tween-80 87 % of control | endpoint: median survival time, dose: 100.0 mg/kg/injection, schedule: Q01DX005 (ip), vehicle: distilled water + Tween-80 107 % of control

c1ccc2c(c1)-c1nc3ccccc3cc1C2N1CCCCC1 (stereo not given)
inactive: [9] 105 % of control | [10] 103 % of control | endpoint: mean survival time, dose: 400.0 mg/kg/injection, schedule: Q01DX009 (ip), vehicle: saline 97 % of control

Nc1ccc2c(c1)C(=O)OC2(C(F)(F)F)C(F)(F)F
inactive: [11] 104 % of control | [12] 101 % of control | [13] 102 % of control
